From patent US8207208B2, “Angiotensin II receptor antagonists” (Merck Sharp & Dohme Corp., priority 2008, dated 2012)

Columns and labels:
vessel = vessel relaxation assay
[1] = test system: reactive nitrogen species (RNS), detected as S-nitrosothiols in rat plasma; assay: DAN assay of reactive nitrogen species in plasma after oral dosing of rats; format: in vivo, Sprague-Dawley rats; conditions: fasted SD rats, 40 mpk PO
Procedure: Mononitrate compounds that have been orally dosed to rats result in nitrites (metabolites of nitric oxide) circulating in plasma with maximal concentrations in the 0.5-2 μM range. Similar dosing of isosorbide mononitrate compounds described in this invention results in increased circulating nitrite concentrations. Biochemical evidence for the generation of NO in vivo in response to test compound administration was obtained from studies in Sprague-Dawley rats. Administration of test compound to fasted SD rats (40 mpk, PO) results in the appearance of reactive nitrogen species (RNS), assessed using the diaminonapthalene derivitization (DAN) assay.
RNS were detected as S-nitrosothiols (RNSOs) in EDTA-treated rat plasma using an HPLC fluorescent assay based on the method of Kostka and Park (Methods Enzymol. 1999, 301, 227-235). The method is based on the detection of fluorescent 2,3-naphthotriazole (NAT) formed in the reaction between acidified 2,3-diaminonaphthalene and the nitrosonium moiety of RSNOs released by HgCl2-mediated breakdown of the S—NO bond. The reaction mixture was chromatographed by reversed phase HPLC, and the fluorescent signal of the resolved NAT peak was quantified.
Plasma (20 μL) was first diluted 1:1 in H2O (20 μL) in a black polypropylene untreated microtiter plate. DAN reagent (100 μL per well, 100 μM DAN in 0.1 N HCl, 4 mM HgCl2) was added, and the plate was immediately sealed with an opaque plate mat, vortexed, and incubated in the dark for 10 min. Plates were centrifuged (2000×g, 5 min) and chilled to 4° C. before HPLC analysis. HPLC was carried out on an Agilent 1200 system using a chilled autosampler (4° C.). Samples were chromatographed on a C8 column (Zorbax Eclipse XDB-C8, 4.6×150 mm, 5 μm) with isocratic elution using a mobile phase of 67% MeOH, 0.1% NH4OAc and a flow rate of 2 mL/min. NAT fluorescence was monitored at 450 nm using an excitation wavelength of 360 nm. Calibration curves were prepared using NaNO2 in control plasma.
RNS change for Examples 2, 3, 4, 5, 7, 10, 11 and 12 was measured at 1, 3, 6 and 24 hours, and is shown below.

| Compound | EC50 (vessel) | DAN ΔRNS ([1]; 1 h) | DAN ΔRNS ([1]; 3 h) | DAN ΔRNS ([1]; 6 h) | DAN ΔRNS ([1]; 24 h) |
| --- | --- | --- | --- | --- | --- |
| 2-{[(3S,3aR,6R,6aS)-6-(nitrooxy)hexahydrofuro[3,2-b]furan-3-yl]oxy}-2-oxoethyl 2-butyl-4-chloro-1-{[2′-(1H-tetrazol-5-yl)biphenyl-4-yl]methyl}-1H-imidazole-5-carboxylate [Example 9] | 5.1 µM |  |  |  |  |
| CCOc1nc2cccc(C(=O)O[C@@H](C)OC(=O)O[C@H]3CO[C@H]4[C@@H]3OC[C@H]4O[N+](=O)[O-])c2n1Cc1ccc(-c2ccccc2-c2nnn[nH]2)cc1 [Example 5, (1R)-1-[({[(3S,3aR,6R,6aS)-6-(nitrooxy)hexahydrofuro[3,2-b]furan-3-yl]oxy}carbonyl)oxy]ethyl 2-ethoxy-1-{[2′-(1H-tetrazol-5-yl)biphenyl-4-yl]methyl}-1H-benzimidazole-7-carboxylate] |  | 0.7 ± 0.5 µM | 2.5 ± 1.0 µM | 2.4 ± 1.2 µM | -0.3 ± 0.6 µM |
| CCCCc1nc(Cl)c(C(=O)O[C@H]2CO[C@H]3[C@@H]2OC[C@H]3O[N+](=O)[O-])n1Cc1ccc(-c2ccccc2-c2nnn[nH]2)cc1 [Example 7, (3S,3aR,6R,6aS)-6-(nitrooxy)hexahydrofuro[3,2-b]furan-3-yl 2-butyl-4-chloro-1-{[2′-(1H-tetrazol-5-yl)biphenyl-4-yl]methyl}-1H-imidazole-5-carboxylate] |  | 5.4 ± 3.2 µM | 1.5 ± 1.2 µM | 0.2 ± 0.3 µM | -0.3 ± 0.2 µM |
| CCCCc1nc(Cl)c(C(=O)O[C@H](C)C(=O)O[C@H]2CO[C@H]3[C@@H]2OC[C@H]3O[N+](=O)[O-])n1Cc1ccc(-c2ccccc2-c2nnn[nH]2)cc1 [Example 10, (1R)-1-methyl-2-{[(3S,3aR,6R,6aS)-6-(nitrooxy)hexahydrofuro[3,2-b]furan-3-yl]oxy}-2-oxoethyl 2-butyl-4-chloro-1-{[2′-(1H-tetrazol-5-yl)biphenyl-4-yl]methyl}-1H-imidazole-5-carboxylate] |  | 0.7 ± 0.3 µM | 2.0 ± 0.4 µM | 1.9 ± 0.7 µM | 0.1 ± 0.3 µM |
| CCCCc1nc(Cl)c(C(=O)O[C@@H](C)C(=O)O[C@H]2CO[C@H]3[C@@H]2OC[C@H]3O[N+](=O)[O-])n1Cc1ccc(-c2ccccc2-c2nnn[nH]2)cc1 [Example 11, (1S)-1-methyl-2-{[(3S,3aR,6R,6aS)-6-(nitrooxy)hexahydrofuro[3,2-b]furan-3-yl]oxy}-2-oxoethyl 2-butyl-4-chloro-1-{[2′-(1H-tetrazol-5-yl)biphenyl-4-yl]methyl}-1H-imidazole-5-carboxylate] |  | 1.1 ± 1.2 µM | 3.3 ± 1.5 µM | 1.8 ± 2.0 µM | 0.1 ± 1.8 µM |

Second part, led by results:

| EC50 (vessel) | Compound | DAN ΔRNS ([1]; 1 h) | DAN ΔRNS ([1]; 3 h) | DAN ΔRNS ([1]; 6 h) | DAN ΔRNS ([1]; 24 h) |
| --- | --- | --- | --- | --- | --- |
| 14.2 µM | CCOc1nc2cccc(C(=O)OC(C)(C)OC(=O)O[C@H]3CO[C@H]4[C@@H]3OC[C@H]4O[N+](=O)[O-])c2n1Cc1ccc(-c2ccccc2-c2nnn[nH]2)cc1 [Example 1, 1-[({[(3S,6R)-6-(nitrooxy)hexahydrofuro[3,2-b]furan-3-yl]oxy}carbonyl)oxy]-1-methylethyl 2-ethoxy-1-{[2′-(1H-tetrazol-5-yl)biphenyl-4-yl]methyl}-1H-benzimidazole-7-carboxylate] |  |  |  |  |
| 9.5 µM | CCCCc1nc(Cl)c(C(=O)O[C@H](C)OC(=O)O[C@H]2CO[C@H]3[C@@H]2OC[C@H]3O[N+](=O)[O-])n1Cc1ccc(-c2ccccc2-c2nnn[nH]2)cc1 [Example 2, (1S)-1-[({[(3S,3aR,6R,6aS)-6-(nitrooxy)hexahydrofuro[3,2-b]furan-3-yl]oxy}carbonyl)oxy]ethyl 2-butyl-4-chloro-1-{[2′-(1H-tetrazol-5-yl)biphenyl-4-yl]methyl}-1H-imidazole-5-carboxylate] | 2.3 ± 1.0 µM | 6.1 ± 1.1 µM | 4.5 ± 1.4 µM | 1.1 ± 0.7 µM |
| 15.4 µM | CCCCc1nc(Cl)c(C(=O)O[C@@H](C)OC(=O)O[C@H]2CO[C@H]3[C@@H]2OC[C@H]3O[N+](=O)[O-])n1Cc1ccc(-c2ccccc2-c2nnn[nH]2)cc1 [Example 3, (1R)-1-[({[(3S,3aR,6R,6aS)-6-(nitrooxy)hexahydrofuro[3,2-b]furan-3-yl]oxy}carbonyl)oxy]ethyl 2-butyl-4-chloro-1-{[2′-(1H-tetrazol-5-yl)biphenyl-4-yl]methyl}-1H-imidazole-5-carboxylate] | 0.5 ± 0.4 µM | 2.7 ± 0.5 µM | 3.0 ± 0.5 µM | 0.1 ± 0.7 µM |
| 8.9 µM | CCOc1nc2cccc(C(=O)O[C@H](C)OC(=O)O[C@H]3CO[C@H]4[C@@H]3OC[C@H]4O[N+](=O)[O-])c2n1Cc1ccc(-c2ccccc2-c2nnn[nH]2)cc1 [Example 4, (1S)-1-[({[(3S,3aR,6R,6aS)-6-(nitrooxy)hexahydrofuro[3,2-b]furan-3-yl]oxy}carbonyl)oxy]ethyl 2-ethoxy-1-{[2′-(1H-tetrazol-5-yl)biphenyl-4-yl]methyl}-1H-benzimidazole-7-carboxylate] | 0.9 ± 0.2 µM | 2.1 ± 1.4 µM | 4.2 ± 2.1 µM | 0.6 ± 0.3 µM |
| 20.6 µM | CCCCc1nc(Cl)c(C(=O)OCCC(=O)O[C@H]2CO[C@H]3[C@@H]2OC[C@H]3O[N+](=O)[O-])n1Cc1ccc(-c2ccccc2-c2nnn[nH]2)cc1 [Example 12, 3-{[(3S,3aR,6R,6aS)-6-(nitrooxy)hexahydrofuro[3,2-b]furan-3-yl]oxy}-3-oxopropyl 2-butyl-4-chloro-1-{[2′-(1H-tetrazol-5-yl)biphenyl-4-yl]methyl}-1H-imidazole-5-carboxylate] | 0.5 ± 0.2 µM | 1.5 ± 0.9 µM | 1.3 ± 0.6 µM | 0.0 ± 0.2 µM |
